{
  "source": "paper PMC3898838",
  "about": "“Design, Synthesis, and Biological Evaluation of an Allosteric Inhibitor of HSET that Targets Cancer Cells with Supernumerary Centrosomes” (Chemistry & Biology, 2013)",
  "key": {"HeLa cells": {"test_system": "HeLa cells", "assay": "Time-lapse video microscopy, mitotic duration, arrest and exit", "format": "cell-based, human", "details": "200 μM CW069, 100 μM monastrol", "protocol": "HSET is known to antagonize the activity of the related kinesin, KSP, during spindle formation ([Mountain et al., 1999]). Therefore, we used time-lapse video microscopy to investigate whether CW069-treated cells transit mitosis with normal kinetics, and whether the characteristic mitotic arrest induced by inhibition of KSP ([Mayer et al., 1999]) could be suppressed by cotreatment with CW069. To this end, HeLa cells were treated with either DMSO control (0.2%), 200 μM CW069, 100 μM monastrol, or CW069+monastrol for 60 min before being imaged every 5 min for a further 360 min. Mitotic duration (MD) was defined as the period of time between when the cells began to round up and the onset of anaphase. No statistical difference was recorded between control cells and cells treated with 200 μM CW069 (MD 55 ± 7 and 53 ± 6 min, respectively, Figures 6A, 6B, and S7). […] This effect was reversed to a large extent by cotreatment of CW069 with monastrol. […] This is consistent with observations previously reported for KSP-depleted cells ([Mountain et al., 1999]). […] Cells were synchronized in G2-M by incubation at 37°C and 5% CO2 for 24 hr with 9 μM of the CDK1 inhibitor RO-3306 (Merck). Cells were released by removal of the RO-3306 and four washings of 10 min each, at 37°C, with prewarmed culture media + 10% FBS. N1E-115 cells were transfected with siRNA (Supplemental Experimental Procedures) and imaged from 6 hr after transfection. Some RO-3306-synchronized cells were released with 200 μM CW069, 100 μM monastrol, or 0.2% DMSO, and imaging started immediately or 1 hr after treatment. Imaging was carried out for 24 hr, or for 4 hr in the case of the CW069/monastrol cotreatment. Imaging was conducted every 5 min in a humidified chamber with 37°C and 5% CO2, using a Nikon Eclipse TE2000-E microscope, and analyzed with NIS-Elements software (Nikon, Tokyo, Japan). The morphology of cells in mitosis and the mitotic fate (bipolar division, multipolar division, or cell death) were analyzed."}, "MCF-7 cells": {"test_system": "MCF-7 cells", "assay": "IncuCyte live-cell imaging, proliferation", "format": "cell-based, human", "details": "MCF-7, 100-350 μM", "from_the_text": "(§1) In order to ascertain whether CW069 could more broadly reduce proliferation in a range of cancer cells, we carried out IncuCyte live-cell imaging on N1E-115 cells and BT549 (with lower but marked centrosome amplification) and MCF-7 (with normal centrosome numbers) breast cancer cells. Cells were imaged for 21 hr prior to treatment with DMSO control (0.2%) and various concentrations of CW069, and then imaged for a further 36 hr. […] It could also be due to another direct or indirect effect, and the role of HSET in the survival of cancer cells with normal centrosome numbers remains to be fully understood.\n(§2) NHDF cells were obtained from PromoCell, and the N1E-115 and HeLa cells were obtained from ATCC/LGC Standards. The BT549, MCF-7 and MDA-MB-231 cells were kind gifts from the Caldas laboratory (CRUK Cambridge Institute) and were originally obtained from ATCC/LGC. All human cells were verified by STR genotyping and all tested negative for mycoplasma. […] Fluorescence was quantified using an Infinite 200 PRO plate-reader (Tecan) at a wavelength of 545 nm. […]\n(§3) For live-cell imaging, plated cells were imaged prior to treatment for 24 hr and then after treatment for 72 hr. […] Data were analyzed as the percentage of original cell confluency in order to directly compare each compound treatment with the DMSO control."}, "BT549 cells": {"test_system": "BT549 cells", "assay": "IncuCyte live-cell imaging, proliferation", "format": "cell-based, human", "details": "BT549, 100-350 μM", "from_the_text": "as §1, §2, §3"}, "[1]": {"test_system": "primary adult human bone marrow cells", "assay": "Colony-formation (CFU-GM) assay", "format": "cell-based", "details": "85 μM, 100 μM, 150 μM"}, "NHDF cells [2]": {"test_system": "NHDF cells", "assay": "Immunofluorescence, mitotic spindle morphology", "format": "cell-based, human", "details": "100 μM and 200 μM, 2.5 hr", "from_the_text": "Using IF, we next examined the mitotic phenotypes induced by CW069 in N1E-115 and NHDF cells, with a strong focus on centrosome numbers and mitotic spindle morphology. Antibodies against α-tubulin, CDK5RAP2, and DAPI were employed to visualize MTs, centrosomes, and DNA, respectively. We hypothesized that small-molecule inhibition of HSET would give rise to mitotic spindle defects similar to those reported after HSET knockdown by siRNA transfection ([Kwon et al., 2008]), and this was indeed the case. […] After treatment, the N1E-115 cells formed multipolar spindles due to a lack of centrosome clustering, consistent with HSET inhibition in cells with supernumerary centrosomes (Figure 4C).\n[…] Prewarmed 4% paraformaldehyde in PBS was then added to each well to fix the cells before washing with PBS. Permeabilization and blocking was performed by incubating the slides with 1% BSA, 0.3% Triton X-100, 5% goat serum in PBS (PBS/B/0.3%T+5%GS) for 1 hr while shaking them at room temperature (RT). The slides were incubated with primary antibody solutions (mouse monoclonal anti-α-Tubulin [catalog number T9026; Sigma-Aldrich] and rabbit anti-CDK5RAP2 [catalog number A300-554A; Bethyl Laboratories]) at 4°C for 16 hr. […]"}, "NHDF cells [3]": {"test_system": "NHDF cells", "assay": "SRB growth-inhibition assay", "format": "cell-based", "details": "Homo sapiens, 72 hr, 0.3 μM to 400 μM", "from_the_text": "We next assessed whether CW069 could selectively target proliferation in cancer cells. We used a combination of cell-growth-inhibition assays based on the Sulforhodamine-B (SRB) technique ([Vichai and Kirtikara, 2006]) and IncuCyte live-cell imaging. […] This further highlights that HSET inhibition, unlike that of KSP or CENP-E, provides a unique opportunity to selectively damage malignant cells without harming normal cells.\nNHDF cells were obtained from PromoCell, and the N1E-115 and HeLa cells were obtained from ATCC/LGC Standards. The BT549, MCF-7 and MDA-MB-231 cells were kind gifts from the Caldas laboratory (CRUK Cambridge Institute) and were originally obtained from ATCC/LGC. All human cells were verified by STR genotyping and all tested negative for mycoplasma. Cells were cultured in Dulbecco’s modified Eagle’s medium (DMEM) supplemented with 10% fetal calf serum (FCS) at 37°C and 5% CO2. All compounds used in the Sulforhodamine B colorimetric (SRB) assay ([Vichai and Kirtikara, 2006]) were dissolved in DMSO and diluted in culture medium to a final concentration of 0.2% DMSO. For the SRB assay and live-cell imaging (using the IncuCyte Kinetic Live Cell Imaging System; Select Science), cells were seeded in 96-well plates at a density of 2,500 cells per well. […] Fluorescence was quantified using an Infinite 200 PRO plate-reader (Tecan) at a wavelength of 545 nm. […]"}, "[4]": {"details": ">200 cells that entered mitosis >60 min after treatment"}},
  "data": [
    {"smiles": "O=C(O)c1cc(I)ccc1NC(=O)[C@H](Cc1ccccc1)NCc1ccccc1", "note": "[CW069]", "values": [
      {"measurement": "Mitotic Arrest (%)", "setting": "HeLa cells; [4]", "result": 4, "unit": "%"},
      {"measurement": "Mitotic Exit (%)", "setting": "HeLa cells; [4]", "result": 96, "unit": "%"},
      {"measurement": "Mitotic duration (MD)", "setting": "HeLa cells; rounding up to anaphase onset, cells transiting mitosis", "result": "53 ± 6", "unit": "min"},
      {"measurement": "cell proliferation", "setting": "MCF-7 cells", "result": "does reduce their proliferation"},
      {"measurement": "cell proliferation", "setting": "BT549 cells", "result": "antiproliferative effect"},
      {"measurement": "clonogenic capacity", "setting": "[1]", "result": "did not reduce the clonogenic capacity"},
      {"measurement": "mitotic spindle morphology", "setting": "NHDF cells [2]", "result": "unchanged compared with control"},
      {"measurement": "IC50", "setting": "NHDF cells [3]", "result": "181 ± 7", "unit": "µM"}
    ]}
  ]
}
